Each compound was assayed against USP30 (Homo sapiens (Human), UniProt Q70CQ3) (assay: USP30 Biochemical IC50 Assay). Conditions: fluorescence polarisation, TAMRA labelled peptide linked to ubiquitin; 30 min pre-incubation, read after 2 h; read-out: IC50 range.
Procedure: Reactions were performed in duplicate in black 384 well plates (small volume, Greiner 784076) in a final reaction volume of 21 μl. Either 1 μl of 50% DMSO or diluted compound was added to the plate. […] Enzyme and compound were incubated for 30 min at room temp. Reactions were initiated by the addition of 50 nM of TAMRA labelled peptide linked to ubiquitin via an iso-peptide bond as fluorescence polarisation substrate. Reactions were read immediately after addition of substrate and following a 2 h incubation at room temperature. Readings were performed on a Pherastar Plus (BMG Labtech). λ Excitation 540 nm; λ Emission 590 nm.

Sequence of USP30 (Q70CQ3 57-517): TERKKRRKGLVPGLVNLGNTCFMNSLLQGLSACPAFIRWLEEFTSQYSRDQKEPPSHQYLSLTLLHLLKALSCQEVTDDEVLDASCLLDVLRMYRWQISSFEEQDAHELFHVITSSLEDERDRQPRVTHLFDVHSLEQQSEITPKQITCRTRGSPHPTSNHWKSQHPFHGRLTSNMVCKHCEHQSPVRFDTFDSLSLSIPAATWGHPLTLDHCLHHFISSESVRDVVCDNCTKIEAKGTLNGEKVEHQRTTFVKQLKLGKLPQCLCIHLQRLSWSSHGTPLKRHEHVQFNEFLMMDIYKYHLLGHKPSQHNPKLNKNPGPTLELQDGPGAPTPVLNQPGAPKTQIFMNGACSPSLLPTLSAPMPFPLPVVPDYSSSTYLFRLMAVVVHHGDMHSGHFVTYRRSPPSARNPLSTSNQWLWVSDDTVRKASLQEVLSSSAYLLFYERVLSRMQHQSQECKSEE

Question: How did the IC50 turn out when N#Cc1ccc(-c2cccc(-c3nc([C@@H]4CCCN4C#N)no3)n2)cc1 [Example 175, (S)-2-(5-(6-(4-Cyanophenyl)pyridin-2-yl)-1,2,4-oxadiazol-3-yl)pyrrolidine-1-carbonitrile] was run?
Answer: The IC50 was under 0.1 µM.

Question: N#CN1CCC(c2nc3nccc(-c4ccccc4)c3[nH]2)C1 (stereo not shown) [Example 98, 3-(7-Phenyl-3H-imidazo[4,5-b]pyridin-2-yl)pyrrolidine-1-carbonitrile] was tested. Which IC50 did it give?
Answer: The IC50 was 1 to 10 µM.

Question: N#CN1CCC(c2[nH]nc(-c3cccc(-c4ccccc4)c3)c2F)C1 (stereo not shown) [Example 15, 3-(3-([1,1′-Biphenyl]-3-yl)-4-fluoro-1H-pyrazol-5-yl)pyrrolidine-1-carbonitrile] was tested. Which IC50 did it give?
Answer: The IC50 was under 0.1 µM.

Question: N#CN1CCC[C@H]1c1nc2ccc(-c3ccccc3)cc2[nH]1 [Example 94, (S)-2-(6-Phenyl-1H-benzo[d]imidazol-2-yl)pyrrolidine-1-carbonitrile] was tested. Which IC50 did it give?
Answer: The IC50 was 1 to 10 µM.

Question: For Cn1cc(-c2ccc(-c3nc(C4CCN(C#N)C4)no3)cc2)cn1 (stereo not shown) [Example 66, 3-(5-(4-(1-Methyl-1H-pyrazol-4-yl)phenyl)-1,2,4-oxadiazol-3-yl)pyrrolidine-1-carbonitrile], which IC50 is on record?
Answer: Its IC50 is 0.1 to 1 µM.

Question: N#CN1CCCC1c1noc(-c2cccc(-c3ccccc3)c2)n1 (stereo not shown) [Example 68, 2-(5-([1,1′-Biphenyl]-3-yl)-1,2,4-oxadiazol-3-yl)pyrrolidine-1-carbonitrile] was tested. Which IC50 did it give?
Answer: The IC50 was 0.1 to 1 µM.

Question: N#CN1CCC(c2cc(-c3cccc(-c4ccccc4)n3)[nH]n2)C1 (single isomer, unassigned) [Example 41, 3-(5-(6-Phenylpyridin-2-yl)-1H-pyrazol-3-yl)pyrrolidine-1-carbonitrile] was tested. Which IC50 did it give?
Answer: The IC50 was 0.1 to 1 µM.

Question: How did the IC50 turn out when CN(C)C(=O)c1cccc(-c2cc(C3CCN(C#N)C3)[nH]n2)c1 (stereo not shown) [Example 8, 3-(5-(1-Cyanopyrrolidin-3-yl)-1H-pyrazol-3-yl)-N,N-dimethylbenzamide] was run?
Answer: Its IC50 is 0.1 to 1 µM.

Question: How did the IC50 turn out when CC[C@@H]1CN(C#N)C[C@H]1c1cc(-c2cccc(-c3ccccc3)c2)n[nH]1 (single isomer, unassigned) [Example 44, Trans-3-(3-([1,1′-biphenyl]-3-yl)-1H-pyrazol-5-yl)-4-ethylpyrrolidine-1-carbonitrile] was run?
Answer: The IC50 was 1 to 10 µM.

Question: For N#CN1CCC(c2noc(-c3cc(-c4ccccc4)nc4ccccc34)n2)C1 (stereo not shown) [Example 53, 3-(5-(2-Phenylquinolin-4-yl)-1,2,4-oxadiazol-3-yl)pyrrolidine-1-carbonitrile], which IC50 is on record?
Answer: Its IC50 is 0.1 to 1 µM.

Question: With N#CN1CCC(c2nnc(-c3ccc4nccn4c3)[nH]2)C1 (stereo not shown) [Example 108, 3-(5-(Imidazo[1,2-a]pyridin-6-yl)-4H-1,2,4-triazol-3-yl)pyrrolidine-1-carbonitrile] as the compound, how does the IC50 read?
Answer: Its IC50 is 1 to 10 µM.

Question: With N#CN1CCC(c2nc3cc(-c4ccc5[nH]ncc5c4)cnc3[nH]2)C1 (stereo not shown) [Example 87, 3-(6-(1H-Indazol-5-yl)-3H-imidazo[4,5-b]pyridin-2-yl)pyrrolidine-1-carbonitrile] as the compound, how does the IC50 read?
Answer: The IC50 was 0.1 to 1 µM.

Question: N#CN1CCC(c2cc(-c3cccc(-c4ccc(Cl)cc4)c3)n[nH]2)C1 (stereo not shown) [Example 29, 3-(3-(4′-Chloro-[1,1′-biphenyl]-3-yl)-1H-pyrazol-5-yl)pyrrolidine-1-carbonitrile] was tested. Which IC50 did it give?
Answer: The IC50 was 0.1 to 1 µM.

Question: How did the IC50 turn out when N#CN1CC[C@@H](c2noc(C3CCN(c4ncccn4)CC3)n2)C1 [Example 64, (R)-3-(5-(1-(Pyrimidin-2-yl)piperidin-4-yl)-1,2,4-oxadiazol-3-yl)pyrrolidine-1-carbonitrile] was run?
Answer: The IC50 was 1 to 10 µM.

Question: Which IC50 does the source give for Cc1cccc2cc(-c3cccc(-c4nc(C5CCCN5C#N)no4)c3)[nH]c12 (stereo not shown) [Example 165, 2-(5-(3-(7-Methyl-1H-indo1-2-yl)phenyl)-1,2,4-oxadiazol-3-yl)pyrrolidine-1-carbonitrile] here?
Answer: Its IC50 is 0.1 to 1 µM.

Question: How did the IC50 turn out when COc1ccc(-c2cnc3[nH]c(C4CCN(C#N)C4)nc3c2)cn1 (stereo not shown) [Example 86, 3-(6-(6-Methoxypyridin-3-yl)-3H-imidazo[4,5-b]pyridin-2-yl)pyrrolidine-1-carbonitrile] was run?
Answer: Its IC50 is 0.1 to 1 µM.

Question: CNC(=O)c1cccc(-c2cnc3[nH]c(C4CCN(C#N)C4)nc3c2)c1 (single isomer, unassigned) [Example 92, 3-(2-(1-Cyanopyrrolidin-3-yl)-3H-imidazo[4,5-b]pyridin-6-yl)-N-methylbenzamide] was tested. Which IC50 did it give?
Answer: The IC50 was 1 to 10 µM.

Question: For N#CN1CCCC1c1noc(-c2ccc(-c3ccccc3)cc2)n1 (stereo not shown) [Example 67, 2-(5-([1,1′-Biphenyl]-4-yl)-1,2,4-oxadiazol-3-yl)pyrrolidine-1-carbonitrile], which IC50 is on record?
Answer: Its IC50 is 1 to 10 µM.

Question: How did the IC50 turn out when N#Cc1cc(-c2cncc(-c3nc([C@@H]4CCCN4C#N)no3)n2)ccn1 [Example 203, (S)-4-(6-(3-(1-Cyanopyrrolidin-2-yl)-1,2,4-oxadiazol-5-yl)pyrazin-2-yl)picolinonitrile] was run?
Answer: Its IC50 is under 0.1 µM.

Question: With N#CN1CCC(c2nc3ccc(-c4ccccc4)nc3[nH]2)C1 (stereo not shown) [Example 97, 3-(5-Phenyl-3H-imidazo[4,5-b]pyridin-2-yl)pyrrolidine-1-carbonitrile] as the compound, how does the IC50 read?
Answer: The IC50 was 1 to 10 µM.

Question: For N#CN1CCC(c2noc(-c3ccc4ncsc4c3)n2)C1 (stereo not shown) [Example 54, 3-(5-(Benzo[d]thiazol-6-yl)-1,2,4-oxadiazol-3-yl)pyrrolidine-1-carbonitrile], which IC50 is on record?
Answer: Its IC50 is 0.1 to 1 µM.

Question: CC(=O)Nc1cccc(-c2cc(C3CCN(C#N)C3)[nH]n2)c1 (stereo not shown) [Example 7, N-(3-(5-(1-Cyanopyrrolidin-3-yl)-1H-pyrazol-3-yl)phenyl)acetamide] was tested. Which IC50 did it give?
Answer: Its IC50 is 1 to 10 µM.

Question: For COc1ccc(-c2cccc(-c3cc(C4CCN(C#N)C4)[nH]n3)c2)cc1 (stereo not shown) [Example 30, 3-(3-(4′-Methoxy-[1,1′-biphenyl]-3-yl)-1H-pyrazol-5-yl)pyrrolidine-1-carbonitrile], which IC50 is on record?
Answer: The IC50 was 0.1 to 1 µM.

Question: With CC[C@@H]1CN(C#N)C[C@H]1c1cc(-c2cccc(-c3ccccc3)c2)n[nH]1 (single isomer, unassigned) [Example 45, Trans-3-(3-([1,1′-biphenyl]-3-yl)-1H-pyrazol-5-yl)-4-ethylpyrrolidine-1-carbonitrile] as the compound, how does the IC50 read?
Answer: The IC50 was 0.1 to 1 µM.

Question: How did the IC50 turn out when Cc1cncc(-c2cccc(-c3nc(C4CCCN4C#N)no3)c2)c1 (stereo not shown) [Example 164, 2-(5-(3-(5-Methylpyridin-3-yl)phenyl)-1,2,4-oxadiazol-3-yl)pyrrolidine-1-carbonitrile] was run?
Answer: Its IC50 is 1 to 10 µM.

Question: Which IC50 does the source give for N#CN1CCC(c2cc(-c3ccc(-c4ccccc4)cn3)n[nH]2)C1 (stereo not shown) [Example 194, 3-(5-(5-Phenylpyridin-2-yl)-1H-pyrazol-3-yl)pyrrolidine-1-carbonitrile] here?
Answer: The IC50 was under 0.1 µM.

Question: How did the IC50 turn out when Cc1noc(C)c1-c1ccn2c(C3CCN(C#N)C3)cnc2c1 (stereo not shown) [Example 125, 3-(7-(3,5-Dimethylisoxazol-4-yl)imidazo[1,2-a]pyridin-3-yl)pyrrolidine-1-carbonitrile] was run?
Answer: The IC50 was 1 to 10 µM.

Question: How did the IC50 turn out when CC1CC(c2cc(-c3cccc(-c4ccccc4)c3)n[nH]2)CN1C#N (stereo not shown) [Example 27, 4-(3-([1,1′-Biphenyl]-3-yl)-1H-pyrazol-5-yl)-2-methylpyrrolidine-1-carbonitrile] was run?
Answer: The IC50 was 1 to 10 µM.

Question: How did the IC50 turn out when N#Cc1cc(F)cc(-c2ccc3oc([C@@H]4CCCN4C#N)nc3c2)c1 [Example 138, (S)-2-(5-(3-Cyano-5-fluorophenyl)-benzo[d]oxazol-2-yl)pyrrolidine-1-carbonitrile] was run?
Answer: Its IC50 is 0.1 to 1 µM.

Question: With N#Cc1cccc(-c2nccc(-c3nc([C@@H]4CCCN4C#N)no3)n2)c1 [Example 186, (S)-2-(5-(2-(3-Cyanophenyl)pyrimidin-4-yl)-1,2,4-oxadiazol-3-yl)pyrrolidine-1-carbonitrile] as the compound, how does the IC50 read?
Answer: Its IC50 is under 0.1 µM.

Question: With N#CN1CCC(c2nc3ccc(-c4ccccc4OCc4ccccc4)cc3[nH]2)C1 (stereo not shown) [Example 73, 3-(6-(2-(Benzyloxy)phenyl)-1H-benzo[d]imidazol-2-yl)pyrrolidine-1-carbonitrile] as the compound, how does the IC50 read?
Answer: Its IC50 is 0.1 to 1 µM.

— patent US11352339B2 (MISSION THERAPEUTICS LIMITED, priority 2016, dated 2022)
